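Briefly, cells in 96-well plates were exposed to five compound concentrations for 48 h, and endpoints were estimated by linear interpolation. The concentration for 50% growth inhibition is given as GI50. TGI: total growth inhibition.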 Where a SMILES comes first, the peptide text is derived from it. [ ]: non-standard residue; d: D form. pGlu = O=C1CC[CH](C(=O)O)N1
What was measured:
Experiment in all cases: inhibition of tumour cell growth, NCI panel, 48 h
SK-MEL-28 melanoma = tested on: SK-MEL-28 melanoma
MALME-3M melanoma = tested on: MALME-3M melanoma
U251 CNS = tested on: U251 CNS
OVCAR-3 ovarian = tested on: OVCAR-3 ovarian
SNB-19 CNS = tested on: SNB-19 CNS
LOX IMVI melanoma = tested on: LOX IMVI melanoma
HCT-15 colon = tested on: HCT-15 colon
OVCAR-4 ovarian = tested on: OVCAR-4 ovarian
CAKI-1 renal = tested on: CAKI-1 renal
MCF7 breast = tested on: MCF7 breast

| Compound | TGI (SK-MEL-28 melanoma) [µM] | TGI (MALME-3M melanoma) [µM] | TGI (U251 CNS) [µM] | TGI (OVCAR-3 ovarian) [µM] | TGI (SNB-19 CNS) [µM] | TGI (LOX IMVI melanoma) [µM] | TGI (HCT-15 colon) [µM] | TGI (OVCAR-4 ovarian) [µM] | TGI (CAKI-1 renal) [µM] | TGI (MCF7 breast) [µM] | GI50 (SK-MEL-28 melanoma) [µM] | GI50 (MALME-3M melanoma) [µM] | GI50 (MCF7 breast) [µM] | GI50 (U251 CNS) [µM] | GI50 (OVCAR-3 ovarian) [µM] | GI50 (HCT-15 colon) [µM] | GI50 (SNB-19 CNS) [µM] | GI50 (CAKI-1 renal) [µM] |
| --- | --- | --- | --- | --- | --- | --- | --- | --- | --- | --- | --- | --- | --- | --- | --- | --- | --- | --- |
| O=C1C2=C(CCCCC2)C2CCCCC12O (stereo not drawn) | > 100 | > 100 | > 100 | > 100 | > 100 | > 100 |  |  |  |  |  |  |  |  |  |  |  |  |
| COc1cc2cc3c4c(cc(OC)c(OC)c4c2cc1OC)CCN3C(=O)N(C)C | > 100 | > 100 | > 100 | > 100 | > 100 | > 100 | > 100 | > 100 | > 100 |  |  |  |  |  |  |  |  |  |
| O=c1oc2c/c(=C\c3ccccc3)c(=O)c3cccc1c3-2 | > 100 | 52.7 | 37.2 | 63 | 67.9 | 40.7 | > 100 |  | 55.8 |  |  |  |  |  |  |  |  |  |
| COc1ccc(/C(Cl)=C(\C=O)c2ccccc2)cc1OC |  | > 100 | > 100 | > 100 | > 100 | > 100 | > 100 | > 100 | > 100 |  |  |  |  |  |  |  |  |  |
| Cn1c(N=[N+]=[N-])cc(=O)n(C)c1=O |  | > 100 | > 100 | > 100 | > 100 | > 100 | > 100 | > 100 | > 100 |  |  |  |  |  |  |  |  |  |
| CC(NC(=O)C(Cc1cnc[nH]1)NC(=O)C1CCC(=O)N1)C(N)=O (stereo not drawn) ([pGlu]-His-Ala-NH2; configuration not given here) | > 100 | > 100 | > 100 | > 100 | > 100 | > 100 |  |  |  | > 100 |  |  |  |  |  |  |  |  |
| N#Cc1ccc(Nc2cnc3ccc(N)cc3n2)cc1 | > 100 | > 100 | > 100 | > 100 | > 100 | > 100 | > 100 | > 100 | > 100 |  |  |  |  |  |  |  |  |  |
| COc1ccc(-c2nnc(-c3c(C)n(C)n(-c4ccccc4)c3=O)o2)cc1 | > 100 | > 100 | > 100 | > 100 | > 100 | > 100 | > 100 | > 100 |  |  |  |  |  |  |  |  |  |  |
| CC(O)c1cc2c(s1)C(=O)c1scc(C(C)O)c1C2=O (stereo not drawn) | 0.62 | 0.35 | 4.07 |  | 1.66 | > 100 | 1.13 | 1.73 | 2.74 | 3.01 |  |  |  |  |  |  |  |  |
| Cn1cc(-c2nc(-c3c[nH]c4ccncc34)cs2)c2cc(F)ccc21 | 3.04 | 3.06 | 3.29 | 3.69 | 3.38 |  | 2.71 |  | 3.04 | 2.88 | 1.63 | 1.57 | 1.23 | 1.8 | 1.94 | 1.33 | 1.83 | 1.65 |
| COc1ccc(CCNC(=O)CCCCCO)cc1OC | > 100 |  | > 100 | > 100 | > 100 |  | > 100 | > 100 | > 100 | > 100 |  |  |  |  |  |  |  |  |
| CC1CC(=O)Nc2ccc(N=NN(C)C)cc2N1C=O (stereo not drawn) | > 100 | > 100 | > 100 | > 100 | > 100 |  | > 100 | > 100 | > 100 | > 100 |  |  |  |  |  |  |  |  |
| Cc1cc2c(c(C(=O)NCCC(=O)N[C@@H](C)C(=O)OCc3ccccc3)c1)Oc1c(cc(C)cc1C(=O)NCCC(=O)N[C@@H](C)C(=O)OCc1ccccc1)S2 |  | > 100 | > 100 | > 100 | > 100 |  | > 100 | > 100 | > 100 | > 100 |  |  |  |  |  |  |  |  |
| CC1(C)O[C@H]2OC(CO)C(OS(C)(=O)=O)[C@H]2O1 (stereo partly drawn) | > 100 | > 100 | > 100 | > 100 | > 100 | > 100 | > 100 |  | > 100 | > 100 |  |  |  |  |  |  |  |  |
| COc1ccc2c(c1)CC1(O)COc3cc(OC)ccc3C1O2 (stereo not drawn) |  | > 100 | > 100 | > 100 |  | > 100 | > 100 | > 100 | > 100 | > 100 |  |  |  |  |  |  |  |  |
| COc1ccc(N=N/C(=N/NC(=O)c2cc(Cl)ccc2C(=O)c2ccccc2)c2ccc(N(CCC#N)CCC#N)cc2C)cc1 | > 100 | 94.7 | > 100 | 27.9 | > 100 |  | 65.7 | > 100 | 46 | > 100 |  |  |  |  |  |  |  |  |
| O=C(NN1C(=O)CSC1c1ccco1)c1ccncc1 (stereo not drawn) | > 100 | > 100 | > 100 | > 100 | > 100 |  | > 100 | > 100 | > 100 | > 100 |  |  |  |  |  |  |  |  |
| CCCCCCCC(=O)OCC(C[As](=O)(O)O)OC(=O)CCCCCCC (stereo not drawn) | 29.3 | 28.5 | 28.2 |  | 28.2 |  | 28.5 | 34 |  |  |  |  |  |  |  |  |  |  |
| Cc1ccc(S(=O)(=O)C2c3nc4ccccc4cc3-c3nc4ccccc4nc32)cc1 (stereo not drawn) | > 100 | > 100 | > 100 | > 100 | > 100 | > 100 | > 100 | > 100 | > 100 |  |  |  |  |  |  |  |  |  |
| CC1(C)OCC(COC(=O)NCn2cc(-c3ccccc3)nn2)O1 (stereo not drawn) | > 100 | > 100 | > 100 |  | > 100 | > 100 | > 100 | > 100 | > 100 | > 100 |  |  |  |  |  |  |  |  |
| O=S(=O)(O)c1cc(Nc2ccnc3ccccc23)c2c(S(=O)(=O)O)cc(S(=O)(=O)O)cc2c1 | > 100 | > 100 | > 100 | > 100 |  | > 100 | > 100 | > 100 | > 100 | > 100 |  |  |  |  |  |  |  |  |
| Cc1c(O)c(=O)ccn1CCc1c[nH]c2ccccc12 |  | 55.4 | > 100 |  | > 100 | 17 | > 100 |  | 7.25 | 33.2 |  |  |  |  |  |  |  |  |

Reference: PubChem BioAssay (NCI)
